Results as given in article PMC6941952, “A homogeneous bioluminescent immunoassay to probe cellular signaling pathway regulation” (Communications Biology, 2020).

Tested on: phospho-IκBα (Ser32)
Experiment: NanoBiT cell-based immunoassay, phosphorylated IκBα in MCF-7 cells
Design: species or system human
Conditions: plate #2; for Subtract reagent background / Raw data: TNF
Experimental: Prior to NanoBiT Cell-Based Immunoassay, 50,000 cells were seeded in 160 µl of complete growth media per well of a 96-well plate and incubated overnight. The cells were checked under microscope and it was determined that 50,000 cells per well in 96-well plate is under 90% confluency for all cells tested. If necessary, the cell culture media were replaced with serum-free media after the cells were stably adherent on the plate and incubated overnight. To treat cells with activators or inhibitors, medium was changed to 30 µl of medium containing inhibitors. If activation of a specific pathway is needed, the cells were stimulated with 10 µl of medium containing activators. To lyse the cells, 10 µl of lysis buffer containing 0.1% digitonin diluted in 1X immunoassay buffer with protease and phosphatase inhibitors was added and the plates were mixed vigorously for 20 min. Then, 50 µl of an antibody mix containing two primary antibodies against the target protein and NanoBiT detecting antibodies (0.3 µl each per well), diluted in 1X immunoassay buffer was added to the lysates. The plates were incubated at 23 °C for 90 min, followed by the addition of 25 µl of Nano-Glo® reagent consisting of Nano-Glo® Luciferase Assay Substrate mixed with 1X immunoassay buffer. Luminescence was measured using a plate-reading luminometer.
In all, 50,000 MCF-7 cells were seeded in 160 µl complete growth medium per well of a 96-well plate and incubated overnight. Half of the cells were treated with 50 ng per ml TNFα and half with vehicle. Cells were lysed as described above and a mixture of NanoBiT secondary antibodies with primary antibodies at the matrix concentrations described in Fig. 2a were added. After 90 min incubation, the Nano-Glo® reagent was added to the reactions as described above and luminescence was measured using a plate-reading luminometer.
Single dose or dose response inhibitor treatments were performed prior to activation of the pathways as follows. For IκBα, the cells were treated in 30 µl medium with IKK16 or MG132 for 60 min before the addition of 10 µl of DMEM containing appropriate concentration of TNFα. To measure phosphorylation of AKT or STAT3, the corresponding NanoBiT immunoassays were developed with MCF-7 or A431 cells, respectively, according the same scheme used to develop the IκBα assay using the primary antibodies for AKT and STAT3 described in the reagents section. For the AKT assay, MCF-7 cells were incubated overnight in phenol-red free DMEM medium (Gibco #21063-029) without serum. Treatment with LY294002 was performed in 30 µl medium and cells were incubated for 60 min before the addition of 1 µM Insulin. To measure STAT3 phosphorylation, A431 cells were incubated overnight in DMEM medium without serum. […] After addition of the stimulators, the cells were incubated for additional times as follows. IκBα phosphorylation and degradation analyses required both time courses and single time points as described in figures. […] The NanoBiT immunoassay protocol was followed as described above.
All 96-well assay plates were read using a GloMax® 96 Microplate Luminometer from Promega. The instrument was set to 0.5 s integration time. In order to obtain net change of signal, the reagent background values (signal from the well containing all reagent except primary antibodies) were subtracted from the sample values. To plot and analyze the data, Microsoft Excel and GraphPad Prism® Software were used. IC50 values were determined by using a nonlinear regression fit to a sigmoidal dose response (variable slope).

[1] = IkB Ab #2 75 ng/ml, P-IkB Ab #1 300 ng/ml
[2] = IkB Ab #2 75 ng/ml, P-IkB Ab #1 600 ng/ml
[3] = IkB Ab #2 75 ng/ml, P-IkB Ab #1 1200 ng/ml
[4] = IkB Ab #2 150 ng/ml, P-IkB Ab #1 75 ng/ml
[5] = IkB Ab #2 150 ng/ml, P-IkB Ab #1 150 ng/ml
[6] = IkB Ab #2 150 ng/ml, P-IkB Ab #1 300 ng/ml
[7] = IkB Ab #2 150 ng/ml, P-IkB Ab #1 600 ng/ml
[8] = IkB Ab #2 150 ng/ml, P-IkB Ab #1 1200 ng/ml
[9] = IkB Ab #2 300 ng/ml, P-IkB Ab #1 75 ng/ml
[10] = IkB Ab #2 300 ng/ml, P-IkB Ab #1 150 ng/ml
[11] = IkB Ab #2 300 ng/ml, P-IkB Ab #1 300 ng/ml
[12] = IkB Ab #2 300 ng/ml, P-IkB Ab #1 600 ng/ml
[13] = IkB Ab #2 300 ng/ml, P-IkB Ab #1 1200 ng/ml
[14] = IkB Ab #2 600 ng/ml, P-IkB Ab #1 75 ng/ml
[15] = IkB Ab #2 600 ng/ml, P-IkB Ab #1 150 ng/ml
[16] = IkB Ab #2 600 ng/ml, P-IkB Ab #1 300 ng/ml
[17] = IkB Ab #2 600 ng/ml, P-IkB Ab #1 600 ng/ml
[18] = IkB Ab #2 600 ng/ml, P-IkB Ab #1 1200 ng/ml
[19] = IkB Ab #2 1200 ng/ml, P-IkB Ab #1 75 ng/ml
[20] = IkB Ab #2 1200 ng/ml, P-IkB Ab #1 150 ng/ml
[21] = IkB Ab #2 1200 ng/ml, P-IkB Ab #1 300 ng/ml
[22] = IkB Ab #2 1200 ng/ml, P-IkB Ab #1 600 ng/ml
[23] = IkB Ab #2 1200 ng/ml, P-IkB Ab #1 1200 ng/ml

TNFα
Subtract reagent background (IkB Ab #2 75 ng/ml, P-IkB Ab #1 150 ng/ml): 2170 | Raw data [1]: 21130 | Subtract reagent background [1]: 2610 | Raw data [2]: 21060 | Subtract reagent background [2]: 2540 | Raw data [3]: 19400 | Subtract reagent background [3]: 880 | Raw data [4]: 21700 | Subtract reagent background [4]: 3180 | Raw data [5]: 21690 | Subtract reagent background [5]: 3170 | Raw data [6]: 22220 | Subtract reagent background [6]: 3700 | Raw data [7]: 20830 | Subtract reagent background [7]: 2310 | Raw data [8]: 19240 | Subtract reagent background [8]: 720 | Raw data [9]: 22450 | Subtract reagent background [9]: 3930 | Raw data [10]: 22650 | Subtract reagent background [10]: 4130 | Raw data [11]: 23650 | Subtract reagent background [11]: 5130 | Raw data [12]: 20040 | Subtract reagent background [12]: 1520 | Raw data [13]: 19000 | Subtract reagent background [13]: 480 | Raw data [14]: 22640 | Subtract reagent background [14]: 4120 | Raw data [15]: 23720 | Subtract reagent background [15]: 5200 | Raw data [16]: 23520 | Subtract reagent background [16]: 5000 | Raw data [17]: 22360 | Subtract reagent background [17]: 3840 | Raw data [18]: 20110 | Subtract reagent background [18]: 1590 | Raw data [19]: 22600 | Subtract reagent background [19]: 4080 | Raw data [20]: 23950 | Subtract reagent background [20]: 5430 | Raw data [21]: 23940 | Subtract reagent background [21]: 5420 | Raw data [22]: 23180 | Subtract reagent background [22]: 4660 | Raw data [23]: 21820 | Subtract reagent background [23]: 3300 | Fold change (TNF-treated /Non-treated) (IkB Ab #2 (Mouse) 75 ng/ml, P-IkB Ab #1 (Rabbit) 75 ng/ml): 1.212 | Fold change (TNF-treated /Non-treated) (IkB Ab #2 (Mouse) 75 ng/ml, P-IkB Ab #1 (Rabbit) 75 ng/ml, listed as TNF): 1.2 | Fold change (TNF-treated /Non-treated) (IkB Ab #2 (Mouse) 75 ng/ml, P-IkB Ab #1 (Rabbit) 150 ng/ml): 1.09 | Fold change (TNF-treated /Non-treated) (IkB Ab #2 (Mouse) 75 ng/ml, P-IkB Ab #1 (Rabbit) 150 ng/ml, listed as TNF): 1.1 | Fold change (TNF-treated /Non-treated) (IkB Ab #2 (Mouse) 75 ng/ml, P-IkB Ab #1 (Rabbit) 300 ng/ml): 1.197 | Fold change (TNF-treated /Non-treated) (IkB Ab #2 (Mouse) 75 ng/ml, P-IkB Ab #1 (Rabbit) 300 ng/ml, listed as TNF): 1.2 | Fold change (TNF-treated /Non-treated) (IkB Ab #2 (Mouse) 75 ng/ml, P-IkB Ab #1 (Rabbit) 600 ng/ml): 1.104 | Fold change (TNF-treated /Non-treated) (IkB Ab #2 (Mouse) 75 ng/ml, P-IkB Ab #1 (Rabbit) 1200 ng/ml): 0.4356 | Fold change (TNF-treated /Non-treated) (IkB Ab #2 (Mouse) 150 ng/ml, P-IkB Ab #1 (Rabbit) 150 ng/ml): 1.447 | Fold change (TNF-treated /Non-treated) (IkB Ab #2 (Mouse) 150 ng/ml, P-IkB Ab #1 (Rabbit) 150 ng/ml, listed as TNF): 1.4 | Fold change (TNF-treated /Non-treated) (IkB Ab #2 (Mouse) 150 ng/ml, P-IkB Ab #1 (Rabbit) 300 ng/ml): 1.271 | Fold change (TNF-treated /Non-treated) (IkB Ab #2 (Mouse) 150 ng/ml, P-IkB Ab #1 (Rabbit) 300 ng/ml, listed as TNF): 1.3 | Fold change (TNF-treated /Non-treated) (IkB Ab #2 (Mouse) 150 ng/ml, P-IkB Ab #1 (Rabbit) 600 ng/ml): 0.8684 | Fold change (TNF-treated /Non-treated) (IkB Ab #2 (Mouse) 150 ng/ml, P-IkB Ab #1 (Rabbit) 600 ng/ml, listed as TNF): 0.9 | Fold change (TNF-treated /Non-treated) (IkB Ab #2 (Mouse) 150 ng/ml, P-IkB Ab #1 (Rabbit) 1200 ng/ml): 0.2618 | Fold change (TNF-treated /Non-treated) (IkB Ab #2 (Mouse) 150 ng/ml, P-IkB Ab #1 (Rabbit) 1200 ng/ml, listed as TNF): 0.262 | Fold change (TNF-treated /Non-treated) (IkB Ab #2 (Mouse) 300 ng/ml, P-IkB Ab #1 (Rabbit) 150 ng/ml): 1.886 | Fold change (TNF-treated /Non-treated) (IkB Ab #2 (Mouse) 300 ng/ml, P-IkB Ab #1 (Rabbit) 150 ng/ml, listed as TNF): 1.9 | Fold change (TNF-treated /Non-treated) (IkB Ab #2 (Mouse) 300 ng/ml, P-IkB Ab #1 (Rabbit) 300 ng/ml): 2.24 | Fold change (TNF-treated /Non-treated) (IkB Ab #2 (Mouse) 300 ng/ml, P-IkB Ab #1 (Rabbit) 300 ng/ml, listed as TNF): 2.2 | Fold change (TNF-treated /Non-treated) (IkB Ab #2 (Mouse) 300 ng/ml, P-IkB Ab #1 (Rabbit) 600 ng/ml): 1.197 | Fold change (TNF-treated /Non-treated) (IkB Ab #2 (Mouse) 300 ng/ml, P-IkB Ab #1 (Rabbit) 600 ng/ml, listed as TNF): 1.2 | Fold change (TNF-treated /Non-treated) (IkB Ab #2 (Mouse) 300 ng/ml, P-IkB Ab #1 (Rabbit) 1200 ng/ml): 0.3429 | Fold change (TNF-treated /Non-treated) (IkB Ab #2 (Mouse) 300 ng/ml, P-IkB Ab #1 (Rabbit) 1200 ng/ml, listed as TNF): 0.343 | Fold change (TNF-treated /Non-treated) (IkB Ab #2 (Mouse) 600 ng/ml, P-IkB Ab #1 (Rabbit) 75 ng/ml): 2.559 | Fold change (TNF-treated /Non-treated) (IkB Ab #2 (Mouse) 600 ng/ml, P-IkB Ab #1 (Rabbit) 75 ng/ml, listed as TNF): 2.6 | Fold change (TNF-treated /Non-treated) (IkB Ab #2 (Mouse) 600 ng/ml, P-IkB Ab #1 (Rabbit) 150 ng/ml): 2.826 | Fold change (TNF-treated /Non-treated) (IkB Ab #2 (Mouse) 600 ng/ml, P-IkB Ab #1 (Rabbit) 150 ng/ml, listed as TNF): 2.8 | Fold change (TNF-treated /Non-treated) (IkB Ab #2 (Mouse) 600 ng/ml, P-IkB Ab #1 (Rabbit) 300 ng/ml): 2.155 | Fold change (TNF-treated /Non-treated) (IkB Ab #2 (Mouse) 600 ng/ml, P-IkB Ab #1 (Rabbit) 300 ng/ml, listed as TNF): 2.2 | Fold change (TNF-treated /Non-treated) (IkB Ab #2 (Mouse) 600 ng/ml, P-IkB Ab #1 (Rabbit) 600 ng/ml): 2.11 | Fold change (TNF-treated /Non-treated) (IkB Ab #2 (Mouse) 600 ng/ml, P-IkB Ab #1 (Rabbit) 600 ng/ml, listed as TNF): 2.1 | Fold change (TNF-treated /Non-treated) (IkB Ab #2 (Mouse) 600 ng/ml, P-IkB Ab #1 (Rabbit) 1200 ng/ml): 0.8281
